Data taken from patent publication US20060134212A1, “Lercanidipine immediate release compositions” (Forest Laboratories, Inc., priority 2004, published 2006).

Assays:
[1] = species not given; cited from earlier work
[2] = cited from earlier work
Caco-2 cell = Caco-2 cell apparatus; cited from earlier work
[3] = cited from earlier work; remark: listed apart in the source
Caco-2 cell monolayers = assay: Caco-2 cell analysis: lercanidipine permeation with different concentrations of Polysorbate 80 (Tween 80); format: in vitro ADME
Description: The objective of this study was to investigate the effects of surfactant on the permeability characteristics of lercanidipine across Caco-2 cell monolayers. Caco-2 cell monolayers have been used as a model of intestinal mucosa for predicting oral drug absorption (P. Artursson. Epithelial transport of drugs in cell culture. I: A model for studying the passive diffusion of drugs over intestinal absorptive (Caco-2) cells. JPharm (1990)).
Transport experiments for the permeation characteristics of lercanidipine in the presence of different concentrations of Polysorbate 80 (Tween 80) were conducted as follows. […] The samples were collected and analyzed for lercanidipine.
The permeation characteristics lercanidipine across Caco-2 cell monolayers in the presence of different concentrations of Tween 80 were analyzed using four dosing solutions. […]
Papp values will be calculated using the equation: Papp=ΔQ/Δt/(A*C0) where ΔQ/Δt is the linear appearance rate of mass in the receiver solution, A is the filter/cell surface area (1 cm^2 for 12-well system), and C0 is the initial concentration of the test compounds.

| SMILES | plasma concentration (AUCo-t), Form II compared to Form I [1] | time to maximum concentration (Tmax), one form compared to the other [1] | solubility ([2]; at pH 5 and above) | aqueous solubility ([2]; water) | Papp (Caco-2 cell) | time of peak plasma level following dosage ([3]; oral administration) [h] | increase of amount of lercanidipine absorbed with food ([3]; simultaneous intake of food (especially high fat) vs administration without food) | increase in Caco-2 permeability upon the addition of surfactant (Caco-2 cell monolayers; 50 μg/ml Lerc in HBSS, pH 6.8, Tween 80 added vs none) | change of Caco-2 permeability at higher surfactant (Caco-2 cell monolayers; surfactant in transport buffer increased ten fold from 0.02 to 0.2) |
| --- | --- | --- | --- | --- | --- | --- | --- | --- | --- |
| COC(=O)C1=C(C)NC(C)=C(C(=O)OC(C)(C)CN(C)CCC(c2ccccc2)c2ccccc2)C1c1cccc([N+](=O)[O-])c1.Cl (stereo not shown) [Form II] | higher plasma concentration | delayed time of maximum concentration |  |  |  |  |  |  |  |
| COC(=O)C1=C(C)NC(C)=C(C(=O)OC(C)(C)CN(C)CCC(c2ccccc2)c2ccccc2)C1c1cccc([N+](=O)[O-])c1.Cl (stereo not shown) [Form I] |  | shorter time to maximum concentration |  |  |  |  |  |  |  |
| COC(=O)C1=C(C)NC(C)=C(C(=O)OC(C)(C)CN(C)CCC(c2ccccc2)c2ccccc2)C1c1cccc([N+](=O)[O-])c1 (stereo not shown) [lercanidipine, methyl 1,1,N-trimethyl-N-(3,3-diphenylpropyl)-2-aminoethyl 1,4-dihydro-2,6-dimethyl-4-(3-nitrophenyl)pyridine-3,5-dicarboxylate] |  |  | less than 20 μg/ml | about 5 μg/ml | about 0.5×10^−7 cm/s | 1 to 3 | between three and four times | three fold increase in permeability | permeability of lercanidipine decreases |
